One assay has as its system myostatin and MyoD. In words: Myostatin and MyoD expression in dexamethasone-treated mice given sitagliptin or GLP-1(32-36)amide (Example 3-3). The settings on record: dexamethasone 20 mg/kg i.p.; sitagliptin 300 mg/kg oral gavage, GLP-1(32-36)amide 5 μg/kg i.p.; FIG. 9. The format is in vivo, C57BL/6J male mice. On the procedure: The present inventors treated C57BL/6J male mice (n=10/group) with dexamethasone (20 mg/kg/i.p.) to reduce muscles of the mice, and they examined effects of sitagliptin (300 mg/kg/oral gavage) and GLP-1(32-36)amide (5 μg/kg/i.p.) on the body weights and muscles of the mice. Therefore, the present inventors examined a change in the expression level of myostatin, which is a cause of muscle atrophy, and a change in the expression level of the muscle-producing factor MyoD by sitagliptin and GLP-1(32-36)amide.

The test system of assay [1] is muscle atrophy animal model (dexamethasone). As to the kind of experiment: Grip strength of dexamethasone-treated mice given sitagliptin or GLP-1(32-36)amide (Example 3-2). The format is in vivo, C57BL/6J male mice. The settings on record: dexamethasone 20 mg/kg i.p.; sitagliptin 300 mg/kg oral gavage, GLP-1(32-36)amide 5 μg/kg i.p.; FIG. 8. On the procedure:
The present inventors treated C57BL/6J male mice (n=10/group) with dexamethasone (20 mg/kg/i.p.) to reduce muscles of the mice, and they examined effects of sitagliptin (300 mg/kg/oral gavage) and GLP-1(32-36)amide (5 μg/kg/i.p.) on the body weights and muscles of the mice. In detail, the grip strength when all of the paws of the mouse of Example 6 were pulled with the same force was measured by a grip strength machine.

Assay [2] shares this test system. In words: Body weight of dexamethasone-treated mice given sitagliptin or GLP-1(32-36)amide (Example 3-1). The format is in vivo, C57BL/6J male mice. The settings on record: dexamethasone 20 mg/kg i.p.; sitagliptin 300 mg/kg oral gavage, GLP-1(32-36)amide 5 μg/kg i.p.; FIG. 6. On the procedure:
(§1) The present inventors treated C57BL/6J male mice (n=10/group) with dexamethasone (20 mg/kg/i.p.) to reduce muscles of the mice, and they examined effects of sitagliptin (300 mg/kg/oral gavage) and GLP-1(32-36)amide (5 μg/kg/i.p.) on the body weights and muscles of the mice.

Assay [3] has the same test system. As to the kind of experiment: Muscle mass of dexamethasone-treated mice given sitagliptin or GLP-1(32-36)amide (Example 3-1). The assay is classed as in vivo, C57BL/6J male mice. Conditions: dexamethasone 20 mg/kg i.p.; sitagliptin 300 mg/kg oral gavage, GLP-1(32-36)amide 5 μg/kg i.p.; FIG. 7. On the procedure:
as §1

Assay [4] has as its system muscle atrophy-induced mice (dexamethasone). In words: Body weight of dexamethasone-induced muscle atrophy mice treated with exendin-4 (Example 1-1). The format is in vivo, C57BL/6J male mice. Conditions: exendin-4 100 ng/mouse i.p. 12 days following dexamethasone 200 mg/kg i.p. 8 days; vs dexamethasone alone; from day 11; FIG. 1. On the procedure: It is known that muscle atrophy is caused by chronic diseases (chronic renal failure, chronic heart failure, chronic obstructive disease, etc.), and caused by administration of a high dose of a drug such as dexamethasone. Thus, animal models (C57BL/6J male mice) were treated with dexamethasone to prepare sarcopenia models. When sarcopenia occurred, effects of exendin-4 were investigated.
(§2) In detail, control mice which were not administered with dexamethasone or exendin-4, mice in which muscle atrophy was induced by intraperitoneal injection of dexamethasone (200 mg/kg) for 8 days, comparative mice which were intraperitoneally injected with exendin-4 (100 ng/mouse) for 12 days, and mice in which muscle atrophy was treated by intraperitoneal injection of exendin-4 (100 ng/mouse) for 12 days following intraperitoneal injection of dexamethasone (200 mg/kg) for 8 days were prepared. While these mice were raised for 20 days, changes in their body weights were measured (FIG. 1).

Assay [5] deals with myostatin, atrogin-1, MuRF1, MyoD and myogenin genes. As to the kind of experiment: Expression of muscle protein-destroying and -producing genes in muscle tissue, PCR (Example 1-4). The assay is classed as in vivo, C57BL/6J male mice. The settings on record: exendin-4 following dexamethasone, FIG. 4. As to the method: as §2
It is known that when muscle atrophy occurs, expression of muscle protein-destroying genes (myostatin, atrogin-1, and MuRF1) is increased and expression of muscle protein-producing genes (MyoD and myogenin) is decreased; thus, this was to be examined That is, muscle tissues were removed from the control mice (control), dexamethasone-induced muscle atrophy mice, exendin-4-treated comparative mice, and muscle atrophy-treated mice treated with exendin-4 following treatment of dexamethasone, which were prepared in Example 1-1, and total RNAs were obtained from the muscle tissues. cDNAs were synthesized therefrom, each gene was amplified from the synthesized cDNA by PCR, and changes in the expression levels thereof were compared (FIG. 4).

For assay [6], the system named is myostatin, atrogin-1, and MuRF1 in C2C12 myocytes. As to the kind of experiment: Expression of muscle atrophy-related genes in dexamethasone-treated C2C12 myocytes (Example 1-5). The assay is classed as cell-based. The settings on record: 20 nM exendin-4 6 hours following 1 μM dexamethasone 12 hours, FIG. 5. On the procedure:
A myoblast cell line C2C12 was differentiated into myocytes by culturing in a medium containing 2% (v/v) horse serum for 5 days. Control myocytes (control) prepared from the differentiated myocytes without any treatment, myocytes in which muscle atrophy symptoms were induced by treatment of 1 μM dexamethasone for 12 hours, comparative myocytes treated with 20 nM exendin-4 for 6 hours, and experimental myocytes in which muscle atrophy symptoms were treated with 20 nM exendin-4 for 6 hours following treatment of 1 μM dexamethasone for 12 hours were each prepared. Expression levels of muscle atrophy-related genes (myostatin, atrogin-1, and MuRF1) were compared in each of the myocytes (FIG. 5).

Assay [7] concerns muscle atrophy-induced mice (dexamethasone). As to the kind of experiment: Grip strength of muscle atrophy-induced mice treated with exendin-4 (Example 1-3). The settings on record: exendin-4 100 ng/mouse i.p. 12 days following dexamethasone 200 mg/kg i.p. 8 days; FIG. 3. The assay is classed as in vivo, C57BL/6J male mice. On the procedure: as §2
The control mice (control), dexamethasone-induced muscle atrophy mice, exendin-4-treated comparative mice, and muscle atrophy-treated mice treated with exendin-4 following treatment of dexamethasone, which were prepared in Example 1-1, were subjected to measurement of grip strength to investigate whether muscle functions were recovered (FIG. 3). In this regard, a force measured by a grip strength machine when all of the paws of a mouse were pulled with the same force was considered as the grip strength.

Assay [8] shares this test system. As to the kind of experiment: Skeletal muscle weights of muscle atrophy-induced mice treated with exendin-4 (Example 1-2). The assay is classed as in vivo, C57BL/6J male mice. Conditions: exendin-4 100 ng/mouse i.p. 12 days following dexamethasone 200 mg/kg i.p. 8 days; FIG. 2. On the procedure: as §2
The control mice (control), dexamethasone-induced muscle atrophy mice, exendin-4-treated comparative mice, and muscle atrophy-treated mice treated with exendin-4 following treatment of dexamethasone, which were prepared in Example 1-1, were sacrificed, and total weights of the skeletal muscles of the respective mice were measured. Quadratus muscles, gastrocnemus muscles, tibialis anterior muscles, soleus muscles, and extensor digitorum longus muscles constituting the skeletal muscles were each separated, and their weights were compared (FIG. 2).

Assay [9] concerns dexamethasone-induced muscle atrophy or sarcopenia mice. In words: Muscle mass of dexamethasone-treated mice given long-acting GLP-1(7-36) (Example 2-3). The assay is classed as in vivo, male C57BL6J mice. Conditions: dexamethasone 20 mg/kg i.p., Trulicity 1 mg/kg, PB1023 3 mg/kg s.c.; for total muscle mass: after three weeks, vs Dex-vehicle group, FIG. 12A. As to the method: (§3) Specifically, 10-week-old male C57BL6J mice were divided into 10 mice per group (total n=40), and saline and dexamethasone (20 mg/kg) were each intraperitoneally administered to the control and experimental groups each day. The grip strength of the mice was measured on day 9.
(§4) Subsequently, on day 11, the control mice were administered with saline three times per week by subcutaneous injection (Co-vehicle group), whereas the comparative mice were administered with either (i) saline three times per week by subcutaneous injection (Dex-vehicle group), (ii) Trulicity (SEQ ID NO: 5) two times per week by subcutaneous injection (1 mg/kg; Trulicity group), or (iii) PB1023 three times per week by subcutaneous injection (3 mg/kg; PB1023 group).
(§5) Thereafter, the grip strength was measured and a four limb hanging test was performed on day 14, and tissue sampling was performed on day 22.

Assay [10] shares this test system. In words: Grip strength of dexamethasone-treated mice given long-acting GLP-1(7-36) (Example 2-2). The settings on record: dexamethasone 20 mg/kg i.p., Trulicity 1 mg/kg s.c. two times per week, PB1023 3 mg/kg s.c. three times per week, after two weeks, FIGS. 11A and 11B. The assay is classed as in vivo, male C57BL6J mice. On the procedure:
as §3, §4, §5

Entries after “also recorded” stand apart in the source; their conditions may differ. Ends that are not written are not given here.

With `N[C@@H](CC(=O)N1CCn2c(nnc2C(F)(F)F)C1)Cc1cc(F)c(F)cc1F` [sitagliptin], in the assay on myostatin and MyoD, the MyoD expression entry is listed as “increased again” and the myostatin expression result is “decreased again”. Also, in [1], the grip strength entry was “increased again”. Further, the body weight entry in assay [2] was “increased”. Moreover, the muscle mass entry in assay [3] is given as “increased”.
With exendin-4, in assay [4], the body weight result is recorded as “increase in the body weight was observed; also recorded: reduced body weight was restored”. Besides, in [5], the “relative expression levels of muscle protein-destroying genes (myostatin, atrogin-1, and MuRF1)” value was “lowest relative expression levels; also recorded: decreased”; the “relative expression levels of muscle protein-producing genes (MyoD and myogenin)” value is “highest relative expression levels; also recorded: increased”. Also, the “expression levels of muscle atrophy-related genes (myostatin, atrogin-1, and MuRF1)” value in assay [6] was “remarkably decreased expression levels”. Further, the grip strength result in assay [7] was “remarkably higher level of grip strength than the muscle atrophy-induced mice; also recorded: reduced grip strength was restored”. In addition, in [8], the “skeletal muscle mass (all kinds of skeletal muscles)” value is listed as “increased muscle mass similar to that of the control or comparative group; also recorded: reduced skeletal muscle mass was restored”.
Regarding GLP-1(32-36)amide (LVKGR-NH2), in the assay with myostatin and MyoD, the MyoD expression entry is “increased again” and the myostatin expression result is reported as “decreased again”. The grip strength result in assay [1] is reported as “increased again”. In addition, the body weight result in assay [2] is recorded as “increased”. In addition, the muscle mass result in [3] was “increased”.
Regarding dulaglutide [Trulicity], the “muscle mass of EDL (Extensor digitorum longus) and QD (Quadratus)” value in assay [9] (B to F of FIG. 12) is recorded as “statistical significance was confirmed by an increase in muscle mass”. Moreover, the “muscle mass of TA (Tibialis anterior), Sol (Soleus), and GA (Gastrocnemius)” value in [9] (B to F of FIG. 12) is “tendency of increasing muscle mass”. Further, the total muscle mass result in assay [9] is “significantly increased compared to the Dex-vehicle group”; in assay [9] (listed as dulaglutide), “muscle mass was increased”. In addition, the grip strength result in assay [10] is reported as “improved to a significant level”; in assay [10] (listed as dulaglutide), “enhanced”.

These data come from patent publication US10993993B2, “Pharmaceutical composition for treating muscle atrophy or sarcopenia including glucagon-like peptide (GLP-1) or GLP-1 receptor agonist” (IMMUNOFORGE CO., LTD., priority 2015, dated 2021).
